Assay results reported in patent US9592223B2, “Small molecule inhibitors of MALT1” (Cornell University, priority 2012, dated 2017).

Experiments:
[1] = target: T1, LZ-MALT1 (MALT1 (340-789) fused with a leucine zipper dimerization motif) (Homo sapiens, UniProt Q9UDY8); assay: LZ-MALT1 fluorescence assay (Ac-LRSR-AMC cleavage), screening and concentration response; format: biochemical; settings: concentration response assay, 0.122 μM to 62.5 μM; read-out: IC50 (biochemical activity, in vitro)
T1 construct: His tag (N); made in house; host or cells: E. coli
T1 sequence (Q9UDY8 with tags, fused parts or gaps limits assumed): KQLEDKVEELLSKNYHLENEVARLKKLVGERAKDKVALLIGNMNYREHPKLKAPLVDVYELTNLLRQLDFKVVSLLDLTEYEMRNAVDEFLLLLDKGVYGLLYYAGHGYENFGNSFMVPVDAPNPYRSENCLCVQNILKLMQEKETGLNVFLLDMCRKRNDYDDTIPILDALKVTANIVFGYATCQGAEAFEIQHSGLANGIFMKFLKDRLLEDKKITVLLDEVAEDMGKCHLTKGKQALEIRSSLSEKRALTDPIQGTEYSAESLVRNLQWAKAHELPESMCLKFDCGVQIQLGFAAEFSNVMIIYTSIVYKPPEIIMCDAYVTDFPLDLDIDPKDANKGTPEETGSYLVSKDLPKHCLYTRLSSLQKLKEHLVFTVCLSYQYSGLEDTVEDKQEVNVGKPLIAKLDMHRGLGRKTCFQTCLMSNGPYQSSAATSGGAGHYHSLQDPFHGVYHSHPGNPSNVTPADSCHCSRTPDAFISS
Source text: We reasoned that MALT1 small-molecule inhibitors might be useful chemical tools for studying MALT1 biology and treating MALT1 addicted tumors. However, full-length MALT1 and its paracaspase domain (amino acids 340-789) are naturally present in physiological solutions as a monomer, which has very low proteolytic activity. Caspases generally must homodimerize for maximal catalytic activity (Pop et al., 2006; Walker et al., 1994; Yin et al., 2006) and accordingly the recently reported structures of the paracaspase domain of MALT1 in complex with a peptide inhibitor are dimeric (Wiesmann et al., 2012; Yu et al., 2011). […]
Ac-LRSR-AMC was used as substrate and reactions were measured with excitation/emission wavelengths of 360/465 nm. […] The final percent inhibition was calculated with the formula: {[fluorescencetest compound(T2-T1)−fluorescenceneg ctrl(T2−T1)]/[fluorescencepos ctrl(T2−T1)−fluorescenceneg ctrl(T2−T1)]}×100. […]
The screening consisted of a 20 μl reaction in 384-well black plates (Greiner Bio One, Wemmel, Belgium, catalogue #784076) with 100 nM LZ-MALT1, 200 μM Ac-LRSR-AMC, and 12.5 μM test compound in buffer A (20 mM HEPES pH 7.5, 10 mM KCl, 1.5 mM MgCl2, 1 mM EDTA, 1 mM DTT, 0.01% Triton X-100). The reactions were measured with excitation/emission wavelengths of 360/465 nm using Envision Multilabel Reader (Perkin-Elmer, Waltham, Mass.). […]

[2] = system: MALT1-mediated cleavage of CYLD; assay: MALT1-mediated cleavage of CYLD in HBL-1 cells, Western blotting and densitometry; format: cell-based, human
Protocol: A total of 704 analog compounds from available libraries with similarity score ≧70% (Tanimoto similarity functions) were screened by LZ-MALT1 fluorescence assay.
Equal amounts of total protein (20-75 μg) were separated on sodium dodecyl sulfate-polyacrylamide gel electrophoresis (SDS-PAGE), and electrotransferred onto nitrocellulose membranes. Membranes were incubated with primary antibodies (MALT1, BCL-10, CYLD from Santa Cruz Biotechnologies, Santa Cruz, Calif.; A20 from eBioscience, San Diego, Calif.; phospho-IκB-α, IκB-α, c-REL, RELB from Cell Signaling, Danvers, Mass. and α-Tubulin from Sigma), followed by secondary antibodies conjugated to horseradish peroxidase, which were detected by chemiluminescence (Pierce, Thermo Scientific, Rockford, Ill.).

[3] = target: T2, paracaspase domain of MALT1 (residues 329-728) (Homo sapiens, UniProt Q9UDY8); assay: HSQC NMR binding; settings: HSQC titration
T2 construct: labeled MALT1 (329-728) was expressed in BL21 (DE3) E. coli; made in house; host or cells: E. coli BL21 (DE3)
T2 sequence (Q9UDY8 329-728): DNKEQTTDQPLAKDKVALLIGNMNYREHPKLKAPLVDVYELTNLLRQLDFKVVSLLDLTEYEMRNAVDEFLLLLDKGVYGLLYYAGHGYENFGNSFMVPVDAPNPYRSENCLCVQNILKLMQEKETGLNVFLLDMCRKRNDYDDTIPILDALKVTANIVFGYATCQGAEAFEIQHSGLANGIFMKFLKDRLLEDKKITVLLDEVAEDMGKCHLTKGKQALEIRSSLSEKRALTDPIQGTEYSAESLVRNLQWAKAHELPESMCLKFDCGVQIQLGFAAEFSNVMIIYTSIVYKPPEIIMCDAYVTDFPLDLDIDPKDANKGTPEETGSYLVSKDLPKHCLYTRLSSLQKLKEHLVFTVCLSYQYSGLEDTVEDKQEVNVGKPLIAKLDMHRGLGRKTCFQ
Protocol: Uniformly ^15N and ^13C labeled MALT1 (329-728) was expressed in BL21 (DE3) E. coli growing in M9 medium containing 1 g/l [^15N]ammonium chloride and 3 g/l [^13C]glucose (Cambridge Isotope Labs, Andover, Mass.) and purified from E. coli cell lysate as described in (Wiesmann et al., 2012).
Standard 2D ^1H ^13C NMR spectra of MALT1 (329-728) were recorded in samples containing 10.0 mg/ml protein in 50 mM HEPES (pH 7.5), 50 mM NaCl, and 10% D2O. NMR spectroscopy experiments were recorded on Bruker AV 500 MHz spectrometer (Bruker, Billerica, Mass.), at 310K.
Standard 2D ^1H ^15N HSQC spectra of MALT1 (329-728) were recorded in samples containing 70 μM protein in 25 mM Tris pH 7.5, 250 mM NaCl, 5 mM DTT, 10% D2O, 0.02% NaN3, 2% DMSO. HSQCs were run on a 600 MHz Varian (Varian, Palo Alto, Calif.) at 37° C.

SMILES: COCCOc1nc(-c2ccc(Cl)c(Cl)c2)n(-c2ccc(NC(=O)CCl)cc2)n1 [MI-2]
- IC50 [1]: ~5 µM
- MALT1-mediated cleavage of CYLD ([2]; HBL-1, increasing concentrations, 24 hr): dose-dependent decrease in MALT1-mediated cleavage
- inhibition of MALT1 cleavage of CYLD ([2]; analogs 5 μM for 8 hr, Z-VRPR-FMK 50 μM as positive control): most potent compound
- binding by NMR spectroscopy [3]: robust interaction
